Among the data in patent US11459338B2, “Heterocyclic compounds as PRMT5 inhibitors” (JUBILANT EPISCRIBE LLC, priority 2018, dated 2022) are IC50 and GI50 values, retold here.

One test addresses T1, PRMT5/MEP50 (Homo sapiens, UniProt O14744).
T1 construct: Full-length human PRMT5 (NP_006100)
Nature of the test: PRMT5/MEP50 enzyme assay on peptide substrates (3H-SAM Flashplate). In kind it is biochemical. Conditions: PRMT5/MEP50 10 nM, H4 1-15aa peptide 100 nM, 3H-SAM 1 μM. The source says:
General materials like S-adenocylmethionine (SAM), S-adenosylhomocysteine (SAH), Tris-HCl, DTT, […] (BSA) and Tween-20 were purchased from Sigma-Aldrich. 3H-SAM and 384-well streptavidin Flashplates were purchased from Perkin Elmer. Substrates that were used were Peptide representative of human Histone 4 residues 1-15 which was purchased from Rockland antibodies and assays.
PRMT5/MEP50 Enzyme assay on Peptide Substrates.
The assays were all performed in a buffer consisting of 50 mMTris-HCl, pH 8, 1 mM DTT, 0.01% BSA, 0.01% Tween-20, prepared on the day of use. Test compounds were diluted 3-fold in assay buffer (final DMSO concentration of 1%) and added into a 384-well OptiPlate (PerkinElmer, #6007290). A cocktail (10 μL) of PRMT5/MEP50 enzyme and the peptide was added to the wells. The compounds were allowed to incubate with PRMT5/MEP50 for 30 min at room temperature, then 5 μL of ^3H-SAM was added to initiate the reaction. The final concentrations of the components were as follows: PRMT5/MEP50-10 nM, H4, 1-15aa peptide-100 nM, ^3H-SAM-1 μM. The assays were stopped by the addition of 1 mM SAH. 25 μL of the reaction from the 384-well OptiPlate was then transferred to a 384-well Flashplate and the biotinylated peptides were allowed to bind to the streptavidin surface for at least 1 h, before being washed twice with 50 mMTris-HCl, pH 8, 0.1% Tween-20. The plates were then read in a PerkinElmer Topcount plate reader to measure the quantity of ^3H-labeled peptide bound to the Flashplate surface measured as disintegrations per minute (dpm), also referred to as counts per minute (cpm).
The IC50 values were calculated using a 4-parameter variable slope fit algorithm (cpm—counts per minute, cmpd—signal in assay well, and cpmmax and cpmmin mare the respective minimum and maximum signal controls).

A further test relates to Z-138 cells. The test can be described thus: Z-138 long term proliferation assay (Cell Titer Glo). Conditions: Homo sapiens, 192 h; Z-138 cells, cell viability, day 8; read-out: PRMT5 Z138 GI50 Day 8 μM. In kind it is cell-based. As for the experimental part:
A compound source plate was prepared by performing ten-point 3-fold dilution in DMSO, such that the final top concentration of the compound was 10 μM, and DMSO was 0.3%. The total volume of compounds added was 20 μL. The cells were incubated for 96 h at 37° C., 5% CO2. […] The cells were re-treated with the compounds and incubated for an additional four days. Cell viability was measured on both day 4 and day 8, by adding 25 μL of Cell Titer Glo reagent to an equal volume of cell suspension. Luminescence was read on a PerkinElmer Victor3 multiplate reader. The concentration of compound inhibiting cell viability by 50% was determined using a 4-parameter, variable slope fit of the normalized dose response curves.
A general note: In ATP-based viability assays light output follows the ATP content of the culture.

Each structure is given as a SMILES string.

T1 sequence (O14744 whole entry): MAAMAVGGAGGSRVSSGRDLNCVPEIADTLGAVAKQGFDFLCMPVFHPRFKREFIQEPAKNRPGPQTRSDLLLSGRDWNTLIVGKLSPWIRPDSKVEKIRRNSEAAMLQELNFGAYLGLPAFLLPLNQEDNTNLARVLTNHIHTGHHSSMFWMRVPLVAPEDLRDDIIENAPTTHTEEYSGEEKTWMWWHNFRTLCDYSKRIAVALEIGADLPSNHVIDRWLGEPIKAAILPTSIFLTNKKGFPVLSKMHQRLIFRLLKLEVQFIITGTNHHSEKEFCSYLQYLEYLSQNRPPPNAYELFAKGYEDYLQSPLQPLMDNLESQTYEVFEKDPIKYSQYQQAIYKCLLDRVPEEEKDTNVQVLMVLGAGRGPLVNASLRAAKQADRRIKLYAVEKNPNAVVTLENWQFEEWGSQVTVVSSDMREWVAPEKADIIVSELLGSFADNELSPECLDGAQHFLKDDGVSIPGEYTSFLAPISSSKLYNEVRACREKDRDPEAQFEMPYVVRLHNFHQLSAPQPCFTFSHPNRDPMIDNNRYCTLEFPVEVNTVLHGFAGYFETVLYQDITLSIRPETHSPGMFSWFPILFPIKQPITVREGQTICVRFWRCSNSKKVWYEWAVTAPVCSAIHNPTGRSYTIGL
T1 sequence (Q9BQA1 whole entry partner): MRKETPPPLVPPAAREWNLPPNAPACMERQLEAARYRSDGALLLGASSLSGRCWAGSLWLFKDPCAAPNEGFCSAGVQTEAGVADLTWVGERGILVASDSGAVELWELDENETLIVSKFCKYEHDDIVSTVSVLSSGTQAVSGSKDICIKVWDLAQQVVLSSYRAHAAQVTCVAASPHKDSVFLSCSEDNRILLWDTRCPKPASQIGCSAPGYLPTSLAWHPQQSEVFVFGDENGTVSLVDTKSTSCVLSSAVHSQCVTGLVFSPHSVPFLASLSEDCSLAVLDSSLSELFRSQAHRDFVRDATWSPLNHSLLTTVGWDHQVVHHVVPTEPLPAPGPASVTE

A word on the IC50: it is the concentration that gives 50% inhibition. Low readings indicate higher potency, high ones lower potency. The term GI50 denotes the concentration at which growth is held to half of that of the control. `O=C(NC[C@H](O)[C@@H](O)CN1CCc2ccccc2C1)c1cn2cc(C(F)(F)F)ccc2n1` [Example 76, N-((2S,3S)-4-(3,4-dihydroisoquinolin-2(1H)-yl)-2,3-dihydroxybutyl)-6-(trifluoromethyl)imidazo[1,2-a]pyridine-2-carboxamide] registered an IC50 against PRMT5/MEP50 of 0.01 to 1 µM. Moreover, the 50% growth inhibitory concentration (GI50) with Z-138 cells is 0.01 to 1 µM.

In turn, `O=C(NC[C@@H](O)[C@H](O)CN1CCc2ccccc2C1)c1cn2cc(C(F)(F)F)ccc2n1` [Example 77, N-((2R,3R)-4-(3,4-dihydroisoquinolin-2(1H)-yl)-2,3-dihydroxybutyl)-6-(trifluoromethyl)imidazo[1,2-a]pyridine-2-carboxamide] yielded an IC50 against PRMT5/MEP50 of 0.01 to 1 µM. Also, in the test with Z-138 cells, the GI50 lay within 0.01 to 1 µM.

As for `Cc1nc(-c2ccc3nc(C(=O)NC[C@H](O)[C@@H](O)CN4CCc5ccccc5C4)cn3c2)no1` [Example 78, N-((2S,3S)-4-(3,4-dihydroisoquinolin-2(1H)-yl)-2,3-dihydroxybutyl)-6-(5-methyl-1,2,4-oxadiazol-3-yl)imidazo[1,2-a]pyridine-2-carboxamide], the IC50 on PRMT5/MEP50 lay within 0.01 to 1 µM. Also, the GI50 in the test on Z-138 cells lay in the range of 0.01 to 1 µM.

At PRMT5/MEP50, `O=C(NC[C@H](O)[C@@H](O)CN1CCc2ccccc2C1)c1cn2cc(-c3cnn([C@@H]4CCOC4)c3)ccc2n1` [Example 79, N-((2S,3S)-4-(3,4-dihydroisoquinolin-2(1H)-yl)-2,3-dihydroxybutyl)-6-(1-((R)-tetrahydrofuran-3-yl)-1H-pyrazol-4-yl)imidazo[1,2-a]pyridine-2-carboxamide] displayed a 50% inhibitory concentration (IC50) of 0.01 to 1 µM. The GI50 with Z-138 cells lay within 0.01 to 1 µM.

As for `Cn1ccc(-c2ccc3nc(C(=O)NC[C@H](O)[C@@H](O)CN4CCc5ccccc5C4)cn3c2)cc1=O` [Example 80, N-((2S,3S)-4-(3,4-dihydroisoquinolin-2(1H)-yl)-2,3-dihydroxybutyl)-6-(1-methyl-2-oxo-1,2-dihydropyridin-4-yl)imidazo[1,2-a]pyridine-2-carboxamide], on PRMT5/MEP50, the half-maximal inhibitory concentration (IC50) lay in the range of 0.01 to 1 µM. Also, in the test with Z-138 cells, the concentration for 50% growth inhibition (GI50) lay within 0.01 to 1 µM.

In the case of `Cn1cc(-c2ccc3nc(C(=O)NC[C@H](O)[C@@H](O)CN4CCc5ccccc5C4)cn3c2)cn1` [Example 81, N-((2S,3S)-4-(3,4-dihydroisoquinolin-2(1H)-yl)-2,3-dihydroxybutyl)-6-(1-methyl-1H-pyrazol-4-yl)imidazo[1,2-a]pyridine-2-carboxamide], on PRMT5/MEP50, the 50% inhibitory concentration (IC50) was 0.01 to 1 µM. Also, the 50% growth inhibitory concentration (GI50) with Z-138 cells fell in the range of 0.01 to 1 µM.

Consider `Cn1cc(-c2ccc3nc(C(=O)NC[C@H](O)CN4CCc5cc(F)ccc5C4)cn3c2)cn1` [Example 82, (S)—N-(3-(6-fluoro-3,4-dihydroisoquinolin-2(1H)-yl)-2-hydroxypropyl)-6-(1-methyl-1H-pyrazol-4-yl)imidazo[1,2-a]pyridine-2-carboxamide], for which the IC50 against PRMT5/MEP50 is 1 to 5 µM. In addition, the GI50 in the test on Z-138 cells fell in the range of 1 to 5 µM.

Compound `O=C(NC[C@H](O)CN1CCc2cc(F)ccc2C1)c1cn2nc(C(F)(F)F)ccc2n1` [Example 83, (S)—N-(3-(6-fluoro-3,4-dihydroisoquinolin-2(1H)-yl)-2-hydroxypropyl)-6-(trifluoromethyl)imidazo[1,2-b]pyridazine-2-carboxamide] yielded a 50% inhibitory concentration (IC50) against PRMT5/MEP50 of more than 5 µM. In addition, the concentration for 50% growth inhibition (GI50) in the test on Z-138 cells was more than 5 µM.

Take `O=C(NC[C@H](O)CN1CCc2cc(F)ccc2C1)c1cn2cc(C(F)(F)F)ncc2n1` [Example 84, (S)—N-(3-(6-fluoro-3,4-dihydroisoquinolin-2(1H)-yl)-2-hydroxypropyl)-6-(trifluoromethyl)imidazo[1,2-a]pyrazine-2-carboxamide]: the IC50 against PRMT5/MEP50 lay in the range of 1 to 5 µM. In the test with Z-138 cells, the 50% growth inhibitory concentration (GI50) is 1 to 5 µM.

Take `Cn1ccc(-c2cn3cc(C(=O)NC[C@H](O)CN4CCc5cc(F)ccc5C4)nc3cn2)cc1=O` [Example 85, (S)—N-(3-(6-fluoro-3,4-dihydroisoquinolin-2(1H)-yl)-2-hydroxypropyl)-6-(1-methyl-2-oxo-1,2-dihydropyridin-4-yl)imidazo[1,2-a]pyrazine-2-carboxamide]: the 50% inhibitory concentration (IC50) against PRMT5/MEP50 fell in the range of 1 to 5 µM. Further, the GI50 with Z-138 cells lay in the range of 1 to 5 µM.
